The assay is described as follows: Antiinflammatory activity in human HDF cells assessed as inhibition of IL-17A/TNF-alpha-stimulated IL-6 release preincubated for 5 hrs followed by IL-17A/TNF-alpha stimulation and measured after 18 to 20 hrs by homogenous time-resolved FRET based assay. In kind it is functional, cell-based.

Consider four compounds from ChEMBL document CHEMBL6153057, “Novel Imidazotriazine Derivatives as IL-17 Modulators for Treating Inflammatory and Autoimmune Disorders” (ACS Med Chem Lett, 2025).

For `[2H]C([2H])([2H])O[C@@H]1CCN(C(=O)[C@@H]2CCC(F)(F)CO2)[C@@H](c2cnn3cc([C@@H](NC(=O)c4ccnn4C)C4CCC(F)(F)CC4)nc3n2)C1`, the IC50 was 39.8 nM. Next, `[2H]C([2H])([2H])O[C@@H]1CCN(C(=O)[C@@H]2CCC(F)(F)CO2)[C@H](c2cnn3cc([C@@H](NC(=O)c4ccnn4C)C4CCC(F)(F)CC4)nc3n2)C1`: 3.98 nM. The value for `CO[C@@H]1CCN(C(=O)[C@@H]2CCC(F)(F)CO2)[C@H](c2cnn3cc([C@@H](NC(=O)c4ccnn4C)C4CCC(F)(F)CC4)nc3n2)C1` was 3.16 nM; that for `CO[C@@H]1CCN(C(=O)[C@@H]2CCC(F)(F)CO2)[C@@H](c2cnn3cc([C@@H](NC(=O)c4ccnn4C)C4CCC(F)(F)CC4)nc3n2)C1` was 39.8 nM.

What is called IC50 is the concentration at which inhibition is half-maximal.
